Experimental data: patent US9315806B2, “Massively parallel combinatorial genetics” (Massachusetts Institute of Technology, priority 2012, dated 2016)

Legend:
[1] = system: E. coli NDM-1 strain; experiment: microbe, parasite or virus in culture; type: cell-based; conditions: for MIC: Escherichia coli, NDM1STRAIN, read-out: NDM-1 MICs, Tested; for NDM-1 MICs, Tested: for piperacillin-tazobactam the piperacillin concentration
[2] = system: Klebsiella pneumoniae NDM-1 clinical isolate; conditions: original Klebsiella pneumoniae NDM-1 isolate; cited from earlier work
[3] = system: aTc-inducible pLtetO promoters; experiment: aTc induction of GFP/mCherry pairwise combinations; type: cell-based, E. coli; conditions: DH5a colonies, increasing concentrations of aTc
Description: Next, to test gene expression, a barcoded vector library of GFP and mCherry was constructed under the control of aTc-inducible pLtetO promoters with a T1+T7 fusion terminator downstream of each ORF. Each vector contained the high-copy ColE1 origin, tetR under control of a constitutive promoter, and cat conferring chloramphenicol resistance.
An insert library was generated via PCR, creating a pairwise combinatorial set as in FIG. 5 that was then transformed into DH5a cells. Twenty-four colonies were isolated and grown in increasing concentrations of aTc along with positive and negative controls (FIG. 7).

[4] = system: yeast strains (Aβ or αSyn expression array, W303 background); experiment: Cell growth and inducible amyloid toxicity of yeast model strains; type: cell-based; conditions: yeast strains with integrated rtTA
Description: (§1) The repetitive Aβ or αSyn expression array was integrated in yeast genome (the W303 background) and controlled by galactose induction. FIG. 28 depicts a yeast strain generated by integrating multiple tandem copies of αSyn with a galactose (Gal)-inducible promoter. In order to minimize the size of plasmid backbone for library construction, the reverse tetracycline transactivator (rtTA), part of the Tet-ON expression system (Gossen, M. et al., Science […]:1766-9 (1995)), was integrated into both yeast strains. The Tet-ON induction was tested by using different fluorescent proteins (such as eGFP and mCherry), and consistently detected robust gene activation (about 50-fold increase) with doxycycline (Dox) treatment. […] Similarly, the rtTA was successfully integrated in wild-type strain (the BY4741 background) to study longevity.

[5] = system: Tet-ON expression system (rtTA); experiment: Tet-ON induction tested with fluorescent proteins (eGFP, mCherry); type: cell-based; conditions: yeast strains with integrated rtTA
Description: as §1

Compound | MIC [1] | NDM-1 MICs, Previously Reported [2] | NDM-1 MICs, Tested ([1]; E. coli NDM-1) | other results
CC1(C)S[C@@H]2[C@H](NC(=O)[C@H](N)c3ccc(O)cc3)C(=O)N2[C@H]1C(=O)O [Amoxicillin] | > 512 µg/mL |  |  | 
CO/N=C(\C(=O)N[C@@H]1C(=O)N2C(C(=O)O)=C(CSc3nc(=O)c(=O)[nH]n3C)CS[C@H]12)c1csc(N)n1 [Ceftriaxone] | > 128 µg/mL | >32 µg/mL |  | 
C[C@@H](O)[C@H]1C(=O)N2C(C(=O)O)=C(SCCN=CN)C[C@H]12 [Imipenem] | > 32 µg/mL |  |  | 
Cc1c2c(c(O)c3c(O)cccc13)C(=O)[C@]1(O)C(O)=C(C(N)=O)C(=O)[C@@H](N(C)C)[C@@H]1C2 [aTc] |  |  |  | on/off ratios of induction [3]: 150-300 x
C[C@H]1c2cccc(O)c2C(=O)C2=C(O)[C@]3(O)C(=O)C(C(N)=O)=C(O)[C@@H](N(C)C)[C@@H]3[C@@H](O)[C@@H]21 [doxycycline] |  |  |  | Effect on cell growth or inducible amyloid toxicity [4]: neither the integrated rtTA nor the Dox treatment affects cell growth or the inducible amyloid toxicity; Gene activation (Tet-ON induction) [5]: about 50 fold
Colistin |  | 0.25 µg/mL | <0.125 µg/mL | 
Gentamicin |  | >10 µg/mL | >256 µg/mL | 
Piperacillin-Tazobactam |  | >128 µg/mL | > 256 µg/mL | NDM-1 MICs, Tested, tazobactam concentration ([1]; E. coli NDM-1, tazobactam part of piperacillin-tazobactam): 32 µg/mL
